Data reported in patent publication US8791163B2 (McGill University, priority 2006, dated 2014).
Values joined by “and” are separate entries in the source; they are usually repeats but may differ in a detail not shown here. Equal values may be shown once.

Assays:
[1] = target: T1, cloned human MT1 receptors (Homo sapiens, UniProt P48039); experiment: [35S]GTPγS binding assay, NIH3T3 cells expressing human MT1; format: biochemical
T1 construct: expressed in transfected cells

[2] = system: Male Sprague-Dawley rats; experiment: Forced Swimming Test (FST); format: in vivo, rat; conditions: 5b 40 mg/kg i.p. 24, 5 and 1 hour prior to the test; vs vehicle
Source text: The forced swimming test (FST), Open field Test (OFT) and the in vivo electrophysiology recording were employed to evaluate the anti-depressant activity, the anti-anxiety activity and the sleep promoting properties of the compounds of the present invention [compounds of Formula (I)]. The following results were obtained using compound 5b. Male Sprague-Dawley rats (225-275 g, Charles-River Saint-Constant, Quebec, Canada) were used. The animals were housed at constant room temperature and humidity under a 12 h light/dark cycle. Food and water were available ad libitum. All procedures were approved by local institutional care and use committees and followed the guidelines released by the Canadian Institutes of Health Research.
The FST is typically a two-day procedure in which rats are immersed in a water containing cylinder (18 cm in diameter; 40 cm high; water 30 cm deep, 25-27° C.) from which they cannot escape. On the first day, the rats are forced to remain in the water bath for 15 minutes (pre-test). During this time, the rats usually struggle to escape, but eventually adopt a posture of immobility in which they emit only the minimal movements necessary to keep their heads above water. The actual test (5 min) occurs 24 h later. When re-immersed in the water, immobility is increased; antidepressant treatments reliably reduce immobility during the test. The FST is both sensitive and selective for clinically effective antidepressants, has been repeatedly validated and is currently the most popular model for detecting antidepressant activity due to its ease of use, reliability and extremely high predictive validity (Lucki, I. (1997) Behav. Pharmacol. 8(6-7): 523-32).
At the end of the pre-test, the rats are removed from the water bath, dried with towels and placed in a warm enclosure for 15 min. The rats are then returned to their respective home cages. […] Behavior is recorded continuously throughout the 5 min test by a video camera positioned directly above the water cylinder. […] The total time for each type of behavior represents the times that a specified behavior is detected. […]

T1 sequence (P48039 whole entry): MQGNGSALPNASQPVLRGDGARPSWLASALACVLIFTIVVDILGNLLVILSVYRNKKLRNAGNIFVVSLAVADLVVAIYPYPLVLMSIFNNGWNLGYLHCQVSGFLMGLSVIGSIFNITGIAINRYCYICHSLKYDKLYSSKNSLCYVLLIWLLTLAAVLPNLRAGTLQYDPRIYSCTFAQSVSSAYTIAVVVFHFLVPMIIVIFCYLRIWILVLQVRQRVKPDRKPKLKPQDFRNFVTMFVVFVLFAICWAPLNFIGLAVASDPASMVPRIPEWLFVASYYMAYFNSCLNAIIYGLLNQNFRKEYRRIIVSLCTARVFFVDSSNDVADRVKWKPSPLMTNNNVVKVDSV

SMILES: COc1cccc(N(CCNC(C)=O)c2ccccc2)c1 [5b, N-{2-[(3-Methoxyphenyl)-phenylamino]ethyl}acetamide]
- functional behaviour (maximal stimulation of basal [35S]GTPγS binding lower than melatonin) ([1]; MT1 and MT2): partial agonist
- MT1 IAr ± SEM (relative intrinsic activity) ([1]; maximal net effect relative to MLT): 0.8 and 0.79 ± 0.03
- immobility [2]: significantly decreased
- tendency to climb or burst [2]: increased the tendency to climb or burst
- tendency to swim [2]: increased the tendency to swim
